Assay results published in ChEMBL document CHEMBL1268945, “Sequential cytotoxicity: a theory examined using a series of 3,5-bis(benzylidene)-1-diethylphosphono-4-oxopiperidines and related phosphonic acids” (Bioorg Med Chem Lett, 2010).
The source made the active and inactive calls. No cut-off for these calls is given here.

Key:
HSC-4 [1] = assay: Selectivity index, ratio of CC50 for normal cells to CC50 for human HSC4 cells; assay type: functional
HSC-2 [2] = assay: Cytotoxicity against human HSC2 cells; assay type: functional
HL-60 [3] = assay: Selectivity index, ratio of CC50 for normal cells to CC50 for human HL60 cells; assay type: functional
[4] = Cytotoxicity against human HGF cells; assay type: cell-based
HSC-4 [5] = assay: Cytotoxicity against human HSC4 cells; assay type: functional
HSC-3 [6] = assay: Cytotoxicity against human HSC3 cells; assay type: functional
HSC-2 [7] = assay: Selectivity index, ratio of CC50 for normal cells to CC50 for human HSC2 cells; assay type: functional
[8] = Cytotoxicity against human HPC cells; assay type: cell-based
[9] = Cytotoxicity against human HPLF cells; assay type: cell-based
HSC-3 [10] = assay: Selectivity index, ratio of CC50 for normal cells to CC50 for human HSC3 cells; assay type: functional
HL-60 [11] = assay: Cytotoxicity against human HL60 cells; assay type: functional
HL-60 [12] = assay: Induction of apoptosis in human HL60 cells assessed as activation of caspase 3 after 6 hrs; assay type: functional, cell-based
HL-60 [13] = assay: Induction of internucleosomal DNA fragmentation in human HL60 cells after 6 hrs; assay type: functional, cell-based
HSC-4 [14] = assay: Induction of internucleosomal DNA fragmentation in human HSC4 cells after 6 hrs; assay type: functional, cell-based
HSC-2 [15] = assay: Induction of internucleosomal DNA fragmentation in human HSC2 cells after 6 hrs; assay type: functional, cell-based
HSC-2 [16] = assay: Induction of apoptosis in human HSC2 cells assessed as activation of caspase 3 after 6 hrs; assay type: functional, cell-based

Row | Structure (SMILES) | Selectivity Index (HSC-4 [1]) | CC50 (HSC-2 [2]) [nM] | Selectivity Index (HL-60 [3]) | CC50 [4] [nM] | CC50 (HSC-4 [5]) [nM] | CC50 (HSC-3 [6]) [nM] | Selectivity Index (HSC-2 [7]) | CC50 [8] [nM] | CC50 [9] [nM] | Selectivity Index (HSC-3 [10]) | CC50 (HL-60 [11]) [nM] | Activity (HL-60 [12]) | Activity (HL-60 [13]) | Activity (HSC-4 [14]) | Activity (HSC-2 [15]) | Activity (HSC-2 [16])
1 | O=C1/C(=C/c2ccc(Cl)cc2)CN(P(=O)(O)O)C/C1=C\c1ccc(Cl)cc1 | 6.3 | 420 | 9.8 | 5900 | 720 | 410 | 11 | 2600 | 5100 | 11 | 460 |  |  |  |  | 
2 | O=C1/C(=C/c2ccccc2)CN(P(=O)(O)O)C/C1=C\c1ccccc1 | 10 | 770 | 12 | 6900 | 570 | 980 | 7.4 | 3200 | 7000 | 5.8 | 460 |  |  |  |  | 
3 | COc1ccc(/C=C2\CN(P(=O)(O)O)C/C(=C\c3ccc(OC)c(OC)c3)C2=O)cc1OC | 5 | 400 | 8.1 | 2600 | 420 | 590 | 5.3 | 1300 | 2500 | 3.6 | 260 |  |  |  |  | 
4 | CCOP(=O)(OCC)N1C/C(=C\c2ccc(OC)cc2)C(=O)/C(=C/c2ccc(OC)cc2)C1 | 36 | 920 | 25 | 53000 | 1300 | 660 | 51 | 41000 | 46000 | 71 | 1900 | Dose-dependent effect | Active | inactive | inactive | inactive
5 | CCOP(=O)(OCC)N1C/C(=C\c2ccccc2)C(=O)/C(=C/c2ccccc2)C1 | 8.4 | 2400 | 15 | 11000 | 1100 | 2500 | 3.8 | 6500 | 10000 | 3.7 | 610 |  |  |  |  | 
6 | N[C@@H](Cc1ccc(N(CCCl)CCCl)cc1)C(=O)O [MELPHALAN] | 6.6 | 8700 | 150 | 161000 | 32000 | 25000 | 24 | 269000 | 199000 | 8.4 | 1400 |  |  |  |  | 
7 | CCOP(=O)(OCC)N1C/C(=C\c2ccc(Cl)cc2)C(=O)/C(=C/c2ccc(Cl)cc2)C1 | 6.3 | 1500 | 6.7 | 4300 | 640 | 2000 | 2.7 | 2800 | 4800 | 2 | 600 |  |  |  |  | 
8 | CCOP(=O)(OCC)N1C/C(=C\c2ccc(OC)c(OC)c2)C(=O)/C(=C/c2ccc(OC)c(OC)c2)C1 | 13 | 1700 | 8.4 | 7400 | 500 | 1400 | 3.7 | 6200 | 5300 | 4.5 | 750 |  |  |  |  | 
9 | Cc1ccc(/C=C2\CN(P(=O)(O)O)C/C(=C\c3ccc(C)cc3)C2=O)cc1 | 5.3 | 760 | 4.6 | 5900 | 960 | 950 | 6.7 | 3300 | 6100 | 5.4 | 1100 |  |  |  |  | 
10 | CCOP(=O)(OCC)N1C/C(=C\c2ccc([N+](=O)[O-])cc2)C(=O)/C(=C/c2ccc([N+](=O)[O-])cc2)C1 | 3.3 | 330 | 17 | 3100 | 720 | 380 | 7.3 | 1900 | 2200 | 6.3 | 140 |  |  |  |  | 
11 | O=C1/C(=C/c2ccccc2[N+](=O)[O-])CN(P(=O)(O)O)C/C1=C\c1ccccc1[N+](=O)[O-] | 22 | 170 | 30 | 1400 | 100 | 320 | 13 | 2100 | 3000 | 6.9 | 70 |  |  |  |  | 
12 | CCOP(=O)(OCC)N1C/C(=C\c2ccccc2[N+](=O)[O-])C(=O)/C(=C/c2ccccc2[N+](=O)[O-])C1 | 7.8 | 1600 | 37 | 18000 | 1800 | 1200 | 8.8 | 8300 | 15000 | 12 | 380 |  |  |  |  | 
13 | CCOP(=O)(OCC)N1C/C(=C\c2cc(OC)c(OC)c(OC)c2)C(=O)/C(=C/c2cc(OC)c(OC)c(OC)c2)C1 | 11 | 330 | 6.2 | 2000 | 160 | 430 | 5.5 | 1300 | 2200 | 4.2 | 290 |  |  |  |  | 
14 | CCOP(=O)(OCC)N1C/C(=C\c2ccc(C)cc2)C(=O)/C(=C/c2ccc(C)cc2)C1 | 4.8 | 4900 | 6.7 | 28000 | 4600 | 4100 | 4.5 | 18000 | 21000 | 5.4 | 3300 |  |  |  |  | 
15 | COc1ccc(/C=C2\CN(P(=O)(O)O)C/C(=C\c3ccc(OC)cc3)C2=O)cc1 | 17 | 1700 | 12 | 107000 | 3900 | 2200 | 40 | 54000 | 44000 | 31 | 5600 |  |  |  |  | 
16 | CCOP(=O)(OCC)N1C/C(=C\c2cccc([N+](=O)[O-])c2)C(=O)/C(=C/c2cccc([N+](=O)[O-])c2)C1 | 9.6 | 760 | 54 | 2200 | 260 | 740 | 3.3 | 1500 | 3900 | 3.4 | 50 |  |  |  |  | 
17 | COc1cc(/C=C2\CN(P(=O)(O)O)C/C(=C\c3cc(OC)c(OC)c(OC)c3)C2=O)cc(OC)c1OC | 6.7 | 130 | 12 | 880 | 120 | 270 | 6.2 | 590 | 1000 | 3 | 60 |  |  |  |  | 
18 | O=C1/C(=C/c2cccc([N+](=O)[O-])c2)CN(P(=O)(O)O)C/C1=C\c1cccc([N+](=O)[O-])c1 | 19 | 200 | 30 | 2300 | 140 | 180 | 13 | 2200 | 3300 | 14 | 90 |  |  |  |  | 
19 | O=C1/C(=C/c2ccc([N+](=O)[O-])cc2)CN(P(=O)(O)O)C/C1=C\c1ccc([N+](=O)[O-])cc1 | 23 | 180 | 21 | 4100 | 130 | 230 | 17 | 1600 | 3400 | 13 | 140 |  |  |  |  | 
